Data on five molecules can be found in patent US9815815B2, “Non-selective kinase inhibitors” (GILEAD SCIENCES, INC., priority 2013, dated 2017).

Experiment [1] relates to PDGFBB stimulated AKT phosphorylation (SER473). The settings on record: 5 μM; PDGFRβ null and PDGFRα null cell lines; cited from earlier work.
Experiment [2] concerns AKT phosphorylation. The conditions noted are these: 0.1 μM; PASMC from control and monocrotaline treated rats; cited from earlier work.
For experiment [3], the system named is PDGFAA stimulated phosphorylation of ERK1 and ERK2. The experiment in a line: PDGFAA stimulated phosphorylation of ERK1 and ERK2 in human fetal lung fibroblasts. The experiment is classed as cell-based. The conditions noted are these: 1 uM.
The subject of experiment [4] is rat MCT model.
Procedure: At the end of the study RVSP pressure was measured; lung and heart fixed in formalin. For measurement of RVSP animals were sedated with isoflurane, intubated via a tracheostomy, and ventilated with a TOPOVENT pressure regulated ventilator (peak inspiratory pressure 18 cm H2O, PEEP 5 cm). After sternotomy, a Scisense high fidelity catheter inserted via the RV apex.
Histology and morphometric analysis. At the end of the study, the heart and lungs were removed from ventilated animals under general anesthesia. Heparinized saline was infused under pressure through the main pulmonary artery. […] The heart was removed, and the RV free wall, interventricular septum and LV free wall dissected and weighed. Buffered formalin (10%) was infused under pressure both through the pulmonary artery and the trachea. Morphometric analysis was performed on H&E stained formalin fixed tissue sectioned at 8 μm. The media area and lumen area of pulmonary arterioles were measured with Image J software by a technician blinded to treatment group. Measurements were made on 20 pulmonary arterioles per section. The ratio of the lumen area to the total media area was determined This ratio normalizes the variation in total pulmonary arteriole area. […] Briefly, pre-capillary arterioles were assigned grade 0 for no evidence of neointimal lesions, grade 1 for less than 50% luminal occlusion, and grade 2 for greater than 50% occlusion.
The subject of experiment [5] is PDGFBB stimulated phosphorylation of ERK1 and ERK2. Description: PDGFBB stimulated phosphorylation of ERK1 and ERK2 in human fetal lung fibroblasts. The experiment is classed as cell-based. The settings on record: for PDGFBB stimulated ppERK1 formation: 1 uM.
Experiment [6] concerns rat MCT+PN model. Description: Telemetry study of PA pressure in the rat MCT+PN model. The experiment is classed as in vivo. The conditions noted are these: for PA systolic pressure: imatinib telemetry study (study 4), 8 min 3x/day. How it is done: Efficacy study in the rat MCT+PN model. Pneumonectomy and implantation of a TRM53P telemetry monitor in the pulmonary artery (Telemetry Research, New Zealand and ADlnstruments, Colorado) was carried out in rats. Two weeks after MCT, PK10453 (Structure 2) was administered three times daily for 1 week. […] Sampling of PA pressure was performed 5 min before each morning dose in ambulatory animals in room air (estimated atmospheric pressure 716 mm Hg based on elevation of animal facility). […] Telemetry data was obtained for 10 min daily before each morning dose for this protocol.

Experiment [7] deals with PDGFBB stimulated AKT phosphorylation. The experiment in a line: In cell Western (ICW), PDGFBB stimulated AKT phosphorylation in human fetal lung fibroblasts. In kind it is cell-based. The conditions noted are these: comparison in words. The procedure: In cell Western (ICW). […] HLFs were maintained in subculture at no more than 6 passages in DMEM with 5% FBS and 4 mM Glutamax at 37° C., 5% CO2. HLFs were plated and grown to 70-80% confluence in 96 well plates then serum-starved for 48 hours. […] Antibodies were detected using IRDye 680LT goat anti-mouse IgG and IRDye 800W goat a-rabbit IgG conjugated antibodies. After washing, the signal was quantified using an Odyssey Infrared Imaging System (LI-COR). Phosphoprotein signal (800 nm) was normalized to total protein signal (700 nm) acquired from each well and experimental duplicates on same plate were averaged and reported.

Regarding `Cc1ccc(NC(=O)c2ccc(CN3CCN(C)CC3)cc2)cc1Nc1nccc(-c2cccnc2)n1` [Imatinib], the “PDGFBB stimulated AKT phosphorylation (SER473)” value in experiment [1] is given as “blocked”. In addition, in experiment [2], the “phosphorylation of AKT at Thr308” value was “no effect”. Further, in experiment [3], the “decreasing PDGF AA stimulated ppERK1 and ppERK2 formation” value was “equally effective”. Moreover, the “RV end systolic pressure” value in experiment [4] (8 min inhalation 3x/day, two weeks) came to 31.8±1.8 mm Hg. Moreover, the “efficacy in the MCT model, in words” value in experiment [4] (given by inhalation) was “equally effective”. For the same molecule, the “PDGFBB stimulated ppERK1 formation” value in experiment [5] was “no effect”. Also, the “efficacy in the MCT+PN model, in words” value in experiment [6] (by inhalation) is reported as “not effective”. In addition, the PA systolic pressure in experiment [6] (day 1) was determined as 41.5±3.5 mm Hg; in experiment [6] (treatment day 9), 75.1±7 mm Hg.
In the case of `COc1cc(-c2cncc(N[C@@H](C)c3cccc(NC(=O)c4cnc(C#N)nc4)c3)n2)ccc1O` [PK10467], in experiment [7], the “IC50 for inhibiting PDGFBB stimulated AKT phosphorylation, compared to imatinib” value is reported as “lower IC50 concentrations compared to imatinib”.
With `C=CS(=O)(=O)NCc1ccc(C(=O)Nc2cccc([C@H](C)Nc3cncc(-c4ccc(O)c(OC)c4)n3)c2)cc1` [PK10468], the “IC50 for inhibiting PDGFBB stimulated AKT phosphorylation, compared to imatinib” value in experiment [7] is recorded as “lower IC50 concentrations compared to imatinib”.
Still for that read-out and setting: with `COc1cc(-c2cncc(N[C@@H](C)c3cccc(NC(=O)c4cncc(C)c4)c3)n2)ccc1C` [PK10569] the entry was “lower IC50 concentrations compared to imatinib”.
For the molecule `COc1ccc(-c2cncc(N[C@@H](C)c3cccc(NC(=O)c4cncc(C)c4)c3)n2)cc1OC` [PK10571], the “decreasing PDGF AA stimulated ppERK1 and ppERK2 formation” value in experiment [3] was “equally effective”. Besides, the “PDGFBB stimulated ppERK1 formation” value in experiment [5] is given as “effective”. The “decreasing PDGF BB stimulated ppERK1 and ppERK2, compared to imatinib” value in experiment [5] (1 uM and 10 uM) is “more effective”. Besides, the “ratio diphosphorylated ERK2 to total ERK2 (ppERK2/ERK2)” value in experiment [5] (PDGFAA or PDGFBB stimulation (10 ng/ml), 1 uM and 10 uM) was “significantly decreased”. Further, in experiment [5] (PDGFAA or PDGFBB stimulation, 1 μM and 10 μM), the “ratio diphosphorylated ERK1 to total ERK1 (ppERK1/ERK1)” value is listed as “significantly decreased”. The “IC50 for inhibiting PDGFBB stimulated AKT phosphorylation, compared to imatinib” value in experiment [7] is recorded as “lower IC50 concentrations compared to imatinib”.
